Experimental data published in US9505728B2, “Triazolone compounds and uses thereof” (INCEPTION 2, INC., priority 2012, dated 2016).

Molecular target: T1, Human PPARα (Homo sapiens, UniProt Q07869)
T1 construct: host or cells: proprietary non-human mammalian cells
T1 sequence (Q07869 1-468): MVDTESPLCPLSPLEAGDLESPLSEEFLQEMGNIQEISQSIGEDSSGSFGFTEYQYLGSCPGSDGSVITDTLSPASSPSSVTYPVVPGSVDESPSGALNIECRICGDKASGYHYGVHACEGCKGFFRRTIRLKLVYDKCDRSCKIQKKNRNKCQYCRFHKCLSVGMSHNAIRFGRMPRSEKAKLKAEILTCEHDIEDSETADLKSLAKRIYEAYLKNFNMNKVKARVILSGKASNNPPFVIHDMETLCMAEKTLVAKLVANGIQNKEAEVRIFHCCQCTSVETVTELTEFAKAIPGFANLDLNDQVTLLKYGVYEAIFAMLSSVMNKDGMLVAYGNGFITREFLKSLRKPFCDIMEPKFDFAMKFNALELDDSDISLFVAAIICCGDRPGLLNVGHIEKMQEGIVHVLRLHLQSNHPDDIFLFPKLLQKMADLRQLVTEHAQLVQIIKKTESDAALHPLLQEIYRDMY
Test: Human PPARα Reporter Assay (luciferase)
Assay type: cell-based
Settings: human PPARα reporter cells, overnight incubation, antagonism; read-out: Luciferase IC50
Outline: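 Non-human mammalian cells constitutively expressing human PPARα with a PPARα-responsive luciferase reporter were dosed with compounds right after plating. After overnight incubation, media removed and detection reagent added; luminescence taken as proportional to PPARα activation, agonist or antagonist mode.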

**Q.** How did the IC50 turn out when `CCn1c(CCCc2ccc(-c3ccc(OC)c(CNS(=O)(=O)c4ccccc4)c3)cc2)nn(Cc2ccc(C(C)(C)C)cc2)c1=O` [Example 185, 1-{[4-(tert-Butyl)phenyl]methyl}-4-ethyl-3-{3-[4-(4-methoxy-3-{[(phenylsulfonyl)amino]methyl}phenyl)phenyl]propyl}-1,2,4-triazolin-5-one] was run?
**A.** 423 nM

**Q.** How did the IC50 turn out when `CCn1c(CCCc2ccc(-c3ccc(CC(=O)O)nc3)cc2)nn(Cc2ccc(C(C)(C)C)cc2)c1=O` [Example 43, 2-(5-{4-[3-(1-{[4-(tert-Butyl)phenyl]methyl}-4-ethyl-5-oxo-1,2,4-triazolin-3-yl)propyl]phenyl}-2-pyridyl)acetic acid] was run?
**A.** 898 nM

**Q.** With `CCn1c(CCCc2ccc(-c3cccc(C(C)C(=O)O)c3)cc2)nn(Cc2ccc(C(C)(C)C)cc2)c1=O` (centres unmarked) [Example 44, 2-(3-{4-[3-(1-{[4-(tert-Butyl)phenyl]methyl}-4-ethyl-5-oxo-1,2,4-triazolin-3-yl)propyl]phenyl}phenyl)propanoic acid] as the molecule, how does the IC50 read?
**A.** 652 nM

**Q.** `CCn1c(CCCc2ccc(-c3cc(NS(C)(=O)=O)ccn3)cc2)nn(Cc2ccc(C(C)(C)C)cc2)c1=O` [Example 40, 1-{[4-(tert-Butyl)phenyl]methyl}-4-ethyl-3-[3-(4-{4-[(methylsulfonyl)amino](2-pyridyl)}phenyl)propyl]-1,2,4-triazolin-5-one] was tested. Which IC50 did it give?
**A.** 408 nM

**Q.** Which IC50 does the source give for `CCn1c(CCCc2ccc(-c3ccc(NS(=O)(=O)Cc4ccccc4)c(C)n3)cc2)nn(Cc2ccc(C(C)(C)C)cc2)c1=O` [Example 125, 1-{[4-(tert-Butyl)phenyl]methyl}-4-ethyl-3-{3-[4-(6-methyl-5-{[benzylsulfonyl]amino}(2-pyridyl))phenyl]propyl}-1,2,4-triazolin-5-one] here?
**A.** 356 nM

**Q.** Which IC50 does the source give for `CCn1c(CCCc2ccc(-c3cccc(NS(=O)(=O)c4ccc(C)cc4)c3)cc2)nn(Cc2ccc(C(C)(C)C)cc2)c1=O` [Example 7, N-(4′-(3-(1-(4-(tert-Butyl)benzyl)-4-ethyl-5-oxo-4,5-dihydro-1H-1,2,4-triazol-3-yl)propyl)-[1,1′-biphenyl]-3-yl)-4-methylbenzenesulfonamide] here?
**A.** 471 nM

**Q.** With `CCn1c(CCCc2ccc(-c3cccc(CS(=O)(=O)NCc4ccccc4)c3)cc2)nn(Cc2ccc(C(C)(C)C)cc2)c1=O` [Example 105, N-Benzyl-1-(4′-(3-(1-(4-(tert-butyl)benzyl)-4-ethyl-5-oxo-4,5-dihydro-1H-1,2,4-triazol-3-yl)propyl)-[1,1′-biphenyl]-3-yl)methanesulfonamide] as the molecule, how does the IC50 read?
**A.** 985 nM

**Q.** With `CCn1c(CCCc2ccc(-c3ccc(NS(=O)(=O)c4ccc(Oc5ccc(C(F)(F)F)cn5)cc4)cn3)cc2)nn(Cc2ccc(C(C)(C)C)cc2)c1=O` [Example 77, 1-{[4-(tert-Butyl)phenyl]methyl}-4-ethyl-3-[3-(4-{5-[({4-[5-(trifluoromethyl)(2-pyridyloxy)]phenyl}sulfonyl)amino](2-pyridyl)}phenyl)propyl]-1,2,4-triazolin-5-one] as the molecule, how does the IC50 read?
**A.** 703 nM

**Q.** With `CCn1c(CCCc2ccc(-c3ccc(OC)c(CC(=O)O)c3)cc2O)nn(Cc2ccc(C(C)(C)C)cc2)c1=O` [Example 146, 2-(4′-(3-(1-(4-(tert-Butyl)benzyl)-4-ethyl-5-oxo-4,5-dihydro-1H-1,2,4-triazol-3-yl)propyl)-3′-hydroxy-4-methoxy-[1,1′-biphenyl]-3-yl) acetic acid] as the molecule, how does the IC50 read?
**A.** 98 nM

**Q.** How did the IC50 turn out when `CCn1c(CCCc2ccc(-c3cccc(CC(=O)O)c3)cc2)nn(Cc2ccc(Br)cc2)c1=O` [Example 37, 2-(4′-(3-(1-(4-Bromobenzyl)-4-ethyl-5-oxo-4,5-dihydro-1H-1,2,4-triazol-3-yl)propyl)-[1,1′-biphenyl]-3-yl)acetic acid] was run?
**A.** 1960 nM

**Q.** With `CCOc1ccc(-c2ccc(CCCc3nn(Cc4ccc(C(C)(C)C)cc4)c(=O)n3CC)cc2)cc1C1(C(=O)O)CC1` [Example 122, 1-(4′-(3-(1-(4-(tert-Butyl)benzyl)-4-ethyl-5-oxo-4,5-dihydro-1H-1,2,4-triazol-3-yl)propyl)-4-ethoxy-[1,1′-biphenyl]-3-yl)cyclopropanecarboxylic acid] as the molecule, how does the IC50 read?
**A.** 188 nM

**Q.** How did the IC50 turn out when `CCn1c(CCCc2ccc(-c3ccc(OC)c(NS(=O)(=O)c4ccc(Cl)nc4)n3)cc2)nn(Cc2ccc(C(C)(C)C)cc2)c1=O` [Example 113, 1-{[4-(tert-Butyl)phenyl]methyl}-3-{3-[4-(6-{[(6-chloro(3-pyridyl))sulfonyl]amino}-5-methoxy(2-pyridyl))phenyl]propyl}-4-ethyl-1,2,4-triazolin-5-one] was run?
**A.** 8 nM

**Q.** With `CCn1c(CCCc2ccc(-c3ccc(OC(F)F)c(C(=O)O)c3)cc2)nn(Cc2ccc(C(C)(C)C)cc2)c1=O` [Example 121, 4′-(3-(1-(4-(tert-Butyl)benzyl)-4-ethyl-5-oxo-4,5-dihydro-1H-1,2,4-triazol-3-yl)propyl)-4-(difluoromethoxy)-[1,1′-biphenyl]-3-carboxylic acid] as the molecule, how does the IC50 read?
**A.** 39 nM

**Q.** For `CCn1c(CCCc2ccc(-c3cc(CC(=O)O)cc(OC)c3)cc2)nn(Cc2ccc(C(C)(C)C)cc2)c1=O` [Example 194, 2-(3-{4-[3-(1-{[4-(tert-Butyl)phenyl]methyl}-4-ethyl-5-oxo(1,2,4-triazolin-3-yl))propyl]phenyl}-5-methoxyphenyl)acetic acid], which IC50 is on record?
**A.** 83 nM

**Q.** How did the IC50 turn out when `CCn1c(CCCc2ccc(-c3ccc(OC)c(CCNS(C)(=O)=O)c3)cc2)nn(Cc2ccc(C(C)(C)C)cc2)c1=O` [Example 183, 1-{[4-(tert-Butyl)phenyl]methyl}-4-ethyl-3-{3-[4-(4-methoxy-3-{2-[(methylsulfonyl)amino]ethyl}phenyl)phenyl]propyl}-1,2,4-triazolin-5-one] was run?
**A.** 440 nM

**Q.** `CCOc1ccc(-c2ccc(CCCc3nn(Cc4ccc(C(C)(C)C)cc4)c(=O)n3CC)cc2)nc1NS(=O)(=O)c1ccccc1` [Example 62, 1-{[4-(tert-Butyl)phenyl]methyl}-3-[3-(4-{5-ethoxy-6-[(phenylsulfonyl)amino](2-pyridyl)}phenyl)propyl]-4-ethyl-1,2,4-triazolin-5-one] was tested. Which IC50 did it give?
**A.** 5 nM

**Q.** For `CCn1c(CCCc2ccc(-c3ccc(OC(F)(F)F)c(CC(=O)O)c3)cc2)nn(Cc2ccc(C(C)(C)C)cc2)c1=O` [Example 130, 2-(4′-(3-(1-(4-(tert-Butyl)benzyl)-4-ethyl-5-oxo-4,5-dihydro-1H-1,2,4-triazol-3-yl)propyl)-4-(trifluoromethoxy)-[1,1′-biphenyl]-3-yl)acetic acid], which IC50 is on record?
**A.** 11 nM

**Q.** `CCn1c(CCCc2ccc(-c3ccc(NS(=O)(=O)c4ccc(OC)cc4)cn3)cc2)nn(Cc2ccc(C(C)(C)C)cc2)c1=O` [Example 91, 1-{[4-(tert-Butyl)phenyl]methyl}-4-ethyl-3-{3-[4-(5-{[(4-methoxyphenyl)sulfonyl]amino}(2-pyridyl))phenyl]propyl}-1,2,4-triazolin-5-one] was tested. Which IC50 did it give?
**A.** 136 nM

**Q.** `CCn1c(CCCc2ccc(-c3cccc(NS(=O)(=O)C4CC4)n3)cc2)nn(Cc2ccc(C(C)(C)C)cc2)c1=O` [Example 42, 1-{[4-(tert-Butyl)phenyl]methyl}-3-[3-(4-{6-[(cyclopropylsulfonyl)amino](2-pyridyl)}phenyl)propyl]-4-ethyl-1,2,4-triazolin-5-one] was tested. Which IC50 did it give?
**A.** 488 nM

**Q.** Which IC50 does the source give for `CCOc1ccc(-c2ccc(CCCc3nn(Cc4ccc(C(C)(C)C)cc4)c(=O)n3CC)cc2)cc1CC(=O)O` [Example 38, 2-(4′-(3-(1-(4-(tert-Butyl)benzyl)-4-ethyl-5-oxo-4,5-dihydro-1H-1,2,4-triazol-3-yl)propyl)-4-ethoxy-[1,1′-biphenyl]-3-yl)acetic acid] here?
**A.** 10 nM

**Q.** For `CCn1c(CCCc2ccc(-c3ncc(OC)c(C(=O)O)n3)cc2)nn(Cc2ccc(C(C)(C)C)cc2)c1=O` [Example 181, 2-(4-(3-(1-(4-(tert-Butyl)benzyl)-4-ethyl-5-oxo-4,5-dihydro-1H-1,2,4-triazol-3-yl)propyl)phenyl)-5-methoxypyrimidine-4-carboxylic acid], which IC50 is on record?
**A.** 846 nM

**Q.** `CCn1c(CCCc2ccc(-c3cccc(/C=C/C(=O)O)c3)cc2)nn(Cc2ccc(C(C)(C)C)cc2)c1=O` [Example 34, 3-(4′-(3-(1-(4-(tert-Butyl)benzyl)-4-ethyl-5-oxo-4,5-dihydro-1H-1,2,4-triazol-3-yl)propyl)-[1,1′-biphenyl]-3-yl)acrylic acid] was tested. Which IC50 did it give?
**A.** 1450 nM

**Q.** With `CCCOc1ccc(-c2ccc(CCCc3nn(Cc4ccc(C(C)(C)C)cc4)c(=O)n3CC)cc2)cc1C(=O)O` [Example 168, 4′-(3-(1-(4-(tert-Butyl)benzyl)-4-ethyl-5-oxo-4,5-dihydro-1H-1,2,4-triazol-3-yl)propyl)-4-propoxy-[1,1′-biphenyl]-3-carboxylic acid] as the molecule, how does the IC50 read?
**A.** 9 nM

**Q.** Which IC50 does the source give for `CCn1c(CCCc2ccc(-c3ccc(C4(F)COC4)cc3)cc2)nn(Cc2ccc(C(C)(C)C)cc2)c1=O` [Example 143, 1-(4-(tert-Butyl)benzyl)-4-ethyl-3-(3-(4%(3-fluorooxetan-3-yl)-[1,1′-biphenyl]-4-yl)propyl)-1H-1,2,4-triazol-5(4H)-one] here?
**A.** 101 nM

**Q.** `CCn1c(CCCc2ccc(-c3cccc(C4CC4C(=O)O)c3)cc2)nn(Cc2ccc(C(C)(C)C)cc2)c1=O` (centres unmarked) [Example 35, 2-(4′-(3-(1-(4-(tert-Butyl)benzyl)-4-ethyl-5-oxo-4,5-dihydro-1H-1,2,4-triazol-3-yl)propyl)-[1,1′-biphenyl]-3-yl)cyclopropanecarboxylic acid] was tested. Which IC50 did it give?
**A.** 1120 nM

**Q.** For `CCn1c(CCCc2ccc(-c3cccc(CC(=O)O)c3)cc2)nn(Cc2ccc(C3CCCCC3)cc2)c1=O` [Example 26, 2-(4′-(3-(1-(4-Cyclohexylbenzyl)-4-ethyl-5-oxo-4,5-dihydro-1H-1,2,4-triazol-3-yl)propyl)-[1,1′-biphenyl]-3-yl)acetic acid], which IC50 is on record?
**A.** 4110 nM
